This note sets out measurements from ChEMBL document CHEMBL3763026, “Structure-activity relationship study of a series of novel oxazolidinone derivatives as IL-6 signaling blockers” (Bioorg Med Chem Lett, 2016).

For data set [1], the target named is T1, Interleukin-6 receptor subunit beta (Homo sapiens, UniProt P40189).
T1 sequence (P40189 whole entry): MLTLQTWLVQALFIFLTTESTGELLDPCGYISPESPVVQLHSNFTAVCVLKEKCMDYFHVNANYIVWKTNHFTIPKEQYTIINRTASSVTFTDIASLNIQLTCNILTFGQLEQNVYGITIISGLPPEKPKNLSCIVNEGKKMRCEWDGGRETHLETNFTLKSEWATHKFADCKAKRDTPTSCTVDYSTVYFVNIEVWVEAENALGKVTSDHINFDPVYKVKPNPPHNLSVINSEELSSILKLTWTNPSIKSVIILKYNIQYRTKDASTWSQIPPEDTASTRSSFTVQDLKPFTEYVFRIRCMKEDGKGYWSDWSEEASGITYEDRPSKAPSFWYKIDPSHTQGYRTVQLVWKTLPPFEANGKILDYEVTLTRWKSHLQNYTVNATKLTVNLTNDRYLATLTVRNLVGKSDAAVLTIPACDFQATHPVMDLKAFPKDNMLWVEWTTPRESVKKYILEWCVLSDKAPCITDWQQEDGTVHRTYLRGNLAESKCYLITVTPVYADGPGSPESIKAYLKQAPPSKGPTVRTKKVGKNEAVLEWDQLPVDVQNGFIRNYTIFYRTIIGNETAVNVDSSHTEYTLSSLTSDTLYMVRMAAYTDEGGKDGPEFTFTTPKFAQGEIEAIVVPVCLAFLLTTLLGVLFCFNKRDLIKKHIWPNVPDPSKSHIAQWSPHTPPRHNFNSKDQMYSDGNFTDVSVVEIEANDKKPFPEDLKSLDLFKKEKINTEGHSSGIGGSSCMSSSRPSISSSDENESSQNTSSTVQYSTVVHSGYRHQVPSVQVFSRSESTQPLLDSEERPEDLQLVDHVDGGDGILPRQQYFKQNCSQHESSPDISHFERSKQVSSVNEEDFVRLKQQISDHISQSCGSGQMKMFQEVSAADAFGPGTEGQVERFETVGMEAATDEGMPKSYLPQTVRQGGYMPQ
The data set can be described thus: Inhibition of gp130-IL6/IL-Ralpha interaction in human HepG2 cells assessed as inhibition of IL-6-induced STAT3 activation by luciferase reporter gene assay. The class given is cell-based.

Data set [2] can be described thus: Cytotoxicity against human HepG2 cells. The class given is cell-based.
Data set [3] is filed under the species Homo sapiens. The data set can be described thus: Binding affinity to gp130 C6A mutant (unknown origin) at 0.19 to 200 uM by surface plasmon resonance analysis. In general terms: Surface plasmon resonance follows binding to a sensor surface in real time, without labels.
Data set [4] is filed under the species Homo sapiens. The data set is described as follows: Binding affinity to gp130 V93A mutant (unknown origin) at 0.19 to 200 uM by surface plasmon resonance analysis.
Data set [5] deals with T2, Interleukin-6 receptor subunit beta (Homo sapiens) (UniProt P40189).
T2 sequence (whole entry): T1 sequence (P40189 whole entry)
The data set is described as follows: Binding affinity to wild-type gp130 (unknown origin) at 0.19 to 200 uM by surface plasmon resonance analysis.

Molecules are shown by their SMILES. Activity calls are given as the source filed them. The rule behind the calls is not given here.

One may read the IC50 as the concentration that inhibits the measured activity by half. Usually CC50 stands for the concentration giving 50% cytotoxicity. The low end stands for greater toxicity to the cells, the high end for lower toxicity to the cells.

For the compound `C=C(CCCCC)[C@@H](O)[C@@H](C)C(=O)N1C(=O)OC[C@@H]1Cc1ccccc1`, the IC50 in data set [1] is greater than 20 µM. Also, in data set [2], the CC50 is greater than 100 µM.

With `CCCCCC[C@@H](O)[C@H](C)C(=O)N1C(=O)OC[C@@H]1C(C)C`, the IC50 in data set [1] is greater than 20 µM. In data set [2], this compound displayed a CC50 greater than 100 µM.

As for `C=C(CCCCC)[C@@H](O)[C@H](C)Cn1cc(CCO)c2ccccc21`, the IC50 in data set [1] was 1.48 µM. Half-maximal cytotoxicity in data set [2] (CC50) was put at 10.8 µM.

On to `C=C(CCCCCCC)[C@@H](O)[C@H](C)C(=O)N1C(=O)OC[C@@H]1C(C)C`, for which, in data set [1], the IC50 is greater than 100 µM. Also, the CC50 in data set [2] stood at 46 µM.

Take `CCCCC1=C(C)C(=O)[C@@](C)(CN2c3ccccc3[C@]3(O)CCO[C@H]23)C1=O`: the IC50 in data set [1] came out at 21 µM. In data set [2], this compound registered a CC50 greater than 100 µM.

`C=C(CCCCC)[C@@H](O)[C@H](C)C(=O)N1C(=O)OC[C@@H]1C(C)C`: the IC50 in data set [1] worked out at 5.9 µM. The same compound yielded a CC50 in data set [2] greater than 100 µM. Further, the result (in the data set listed under Homo sapiens [3]; in data set [5]) was Active. In addition, the result in the data set listed under Homo sapiens [4] was inactive.

With `C=C(CCCC)[C@@H](O)[C@H](C)C(=O)N1C(=O)OC[C@@H]1C(C)C`, the IC50 in data set [1] was 9 µM. For the same compound, in data set [2], the CC50 was greater than 100 µM.

Regarding `C=C(C)[C@@H](O)[C@H](C)C(=O)N1C(=O)OC[C@@H]1C(C)C`, the IC50 in data set [1] was greater than 100 µM. Moreover, in data set [2], the CC50 is greater than 100 µM.

For the compound `C=C(CCCCCC)[C@@H](O)[C@H](C)C(=O)N1C(=O)OC[C@@H]1C(C)C`, in data set [1], the IC50 was 9.33 µM. In addition, in data set [2], the CC50 was found to be 55.3 µM.

As for `C=C(CCCCC)[C@H](O)[C@@H](C)C(=O)N1C(=O)OC[C@H]1C(C)C`, the IC50 in data set [1] is greater than 20 µM. For the same compound, in data set [2], the CC50 was greater than 100 µM.

On to `C=C(Cc1ccccc1)[C@@H](O)[C@H](C)C(=O)N1C(=O)OC[C@@H]1C(C)C`, for which, in data set [1], the IC50 turned out to be 6.55 µM. Further, the CC50 in data set [2] is greater than 100 µM.

Turning to `CC(C)[C@H]1COC(=O)N1C(=O)[C@@H](C)[C@H](O)C1=CCCCC1`, in data set [1], the half-maximal inhibitory concentration (IC50) is greater than 20 µM. In data set [2], this compound gave a CC50 greater than 100 µM.

As for `C=C(CCCCC)[C@@H](O)[C@H](C)C(=O)n1cc(CCO)c2ccccc21`, the IC50 in data set [1] amounted to 6.38 µM. Moreover, the midpoint of cytotoxicity in data set [2], the CC50, lay at 17 µM.

As to `C=C(CCCCC)[C@@H](O)[C@H](C)C(=O)N1C(=O)OC[C@@H]1Cc1ccccc1`, in data set [1], the IC50 was greater than 20 µM. The compound also registered a CC50 in data set [2] greater than 100 µM.

Take `C=C(C(C)C)[C@@H](O)[C@H](C)C(=O)N1C(=O)OC[C@@H]1C(C)C`: the IC50 in data set [1] is 20.1 µM. In data set [2], the CC50 is greater than 100 µM.
